Target: T1, human DP2 (Homo sapiens, UniProt Q9Y5Y4)
T1 construct: expressed in transfected cells; membranes prepared
T1 sequence (Q9Y5Y4 1-395): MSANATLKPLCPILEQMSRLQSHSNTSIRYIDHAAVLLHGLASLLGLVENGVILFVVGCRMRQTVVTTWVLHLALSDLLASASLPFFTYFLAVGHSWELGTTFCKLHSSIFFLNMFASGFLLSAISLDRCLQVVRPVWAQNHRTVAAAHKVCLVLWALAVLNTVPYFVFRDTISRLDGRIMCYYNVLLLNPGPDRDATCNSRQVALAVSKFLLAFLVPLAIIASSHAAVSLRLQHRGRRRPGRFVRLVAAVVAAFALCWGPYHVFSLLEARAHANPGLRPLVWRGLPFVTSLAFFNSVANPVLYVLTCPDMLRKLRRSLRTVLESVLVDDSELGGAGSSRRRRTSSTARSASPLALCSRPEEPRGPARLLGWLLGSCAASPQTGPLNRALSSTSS
Assay: DP-2 binding inhibition assay (3H-PGD2, membranes of DP2-expressing K562 cells)
Conditions: 4% HSA, read-out: EC50 (nM) 4% HSA
Procedure: The coding sequence of human DP2 was introduced into the human Leukemic cell line K562 by electroporation and stable clones expressing DP2 were obtained by limiting dilution followed by cell surface staining with a rat monoclonal antibody specific for human DP2. Membranes were prepared from one of these DP2 expressing clones and used to determine the ability of the compounds of the present invention to inhibit binding of prostaglandin D2 (PGD2) to its receptor DP2 in the presence of one or more of the following serum protein concentrations, 0.1% BSA, 1% HSA or 4% HSA, by the following procedure. […] After incubation for 60 minutes at room temperature, the assay was transferred to a filtration plate (#MAFB; Millipore Corporation, Bedford, Mass.), and washed three times with binding buffer. Radioactivity was measured by a scintillation counter (TopCount; PerkinElmer Life Sciences, Boston, Mass.). Nonspecific binding was determined by incubations in the presence of 1 μM unlabeled PGD2 or 5 μM of a known DP2 antagonist. IC50 values for inhibition of binding were determined for each compound tested from the inflexion point of a standard 4-parameter logistical curve fitted to the values obtained.

Row | Structure (SMILES) | EC50
1 | O=C(Nc1cccc(-c2cccc(Cl)c2)n1)c1ccc(Oc2cc3c(cc2Cl)C(C(=O)O)CCO3)cc1 (stereo not drawn) [Example 34, 6-Chloro-7-(4-(6-(3-chlorophenyl)pyridin-2-ylcarbamoyl)phenoxy)chroman-4-carboxylic acid] | 241 nM
2 | Cc1cccc(-c2cccc(NC(=O)c3ccc(Oc4cc5c(cc4C#N)C(C(=O)O)CCO5)cc3)n2)c1C (stereo not drawn) [Example 40, 6-Cyano-7-(4-(6-(2,3-dimethylphenyl)pyridin-2-ylcarbamoyl)-phenoxy)-chroman-4-carboxylic acid] | 120 nM
3 | N#Cc1cc2c(cc1Oc1ccc(C(=O)Nc3cccc(-c4cccc(C(F)(F)F)c4)n3)cc1)OCCC2C(=O)O (stereo not drawn) [Example 41, 6-Cyano-7-(4-(6-(3-(trifluoromethyl)phenyl)pyridin-2-ylcarbamoyl)-phenoxy)chroman-4-carboxylic acid] | 50.8 nM
4 | N#Cc1cc2c(cc1Oc1ccc(C(=O)Nc3cccc(-c4ccc(C(F)(F)F)cc4)n3)cc1)OCCC2C(=O)O (stereo not drawn) [Example 42, 6-Cyano-7-(4-(6-(4-(trifluoromethyl)phenyl)pyridin-2-ylcarbamoyl)-phenoxy)chroman-4-carboxylic acid] | 36.1 nM
5 | N#Cc1cc2c(cc1Oc1ccc(C(=O)Nc3cccc(-c4ccc5c(c4)CCO5)n3)cc1)OCCC2C(=O)O (stereo not drawn) [Example 43, 6-Cyano-7-(4-(6-(2,3-dihydrobenzofuran-5-yl)pyridin-2-ylcarbamoyl)-phenoxy)chroman-4-carboxylic acid] | 291 nM
6 | N#Cc1cc2c(cc1Oc1ccc(C(=O)Nc3cccc(-c4ccc(Cl)cc4Cl)n3)cc1)OCCC2C(=O)O (stereo not drawn) [Example 49, 6-Cyano-7-(4-(6-(2,4-dichlorophenyl)pyridin-2-ylcarbamoyl)phenoxy)chroman-4-carboxylic acid] | 87.3 nM
7 | N#Cc1cc2c(cc1Oc1ccc(C(=O)Nc3cccc(-c4cccc(Cl)c4)n3)cc1)OCCC2C(=O)O (stereo not drawn) [Example 50, 7-(4-(6-(3-Chlorophenyl)pyridin-2-ylcarbamoyl)phenoxy)-6-cyanochroman-4-carboxylic acid] | 135 nM
8 | N#Cc1cc2c(cc1Oc1ccc(C(=O)Nc3cccc(-c4ccc(Cl)cc4)n3)cc1)OCCC2C(=O)O (stereo not drawn) [Example 51, 7-(4-(6-(4-Chlorophenyl)pyridin-2-ylcarbamoyl)phenoxy)-6-cyanochroman-4-carboxylic acid] | 51.3 nM
9 | O=C(Nc1cccc(-c2ccc(Cl)c(Cl)c2)n1)c1ccc(Oc2cc3c(cc2Cl)C(C(=O)O)CCO3)cc1 (stereo not drawn) [Example 52, 6-Chloro-7-(4-(6-(3,4-dichlorophenyl)pyridin-2-ylcarbamoyl)phenoxy)chroman-4-carboxylic acid] | 50.8 nM
10 | O=C(Nc1cccc(-c2ccc(Cl)c(C(F)(F)F)c2)n1)c1ccc(Oc2cc3c(cc2Cl)C(C(=O)O)CCO3)cc1 (stereo not drawn) [Example 53, 6-Chloro-7-(4-(6-(4-chloro-3-(trifluoromethyl)phenyl)pyridin-2-ylcarbamoyl)phenoxy)chroman-4-carboxylic acid] | 40.9 nM
11 | COc1ccc(-c2cccc(NC(=O)c3ccc(Oc4cc5c(cc4Cl)C(C(=O)O)CCO5)cc3)n2)cn1 (stereo not drawn) [Example 54, Sodium 6-chloro-7-(4-(6′-methoxy-2,3′-bipyridin-6-ylcarbamoyl)phenoxy)chroman-4-carboxylate] | 337 nM
12 | COc1ccc(-c2cccc(NC(=O)c3ccc(Oc4cc5c(cc4Cl)C(C(=O)O)CCO5)cc3)n2)c(OC)n1 (stereo not drawn) [Example 55, Sodium 6-chloro-7-(4-(2′,6′-dimethoxy-2,3′-bipyridin-6-ylcarbamoyl)phenoxy)chroman-4-carboxylate] | 258 nM
13 | O=C(Nc1cccc(-c2ccccc2Cl)n1)c1ccc(Oc2cc3c(cc2Cl)C(C(=O)O)CCO3)cc1 (stereo not drawn) [Example 56, 6-Chloro-7-(4-(6-(2-chlorophenyl)pyridin-2-ylcarbamoyl)phenoxy)chroman-4-carboxylic acid] | 582 nM
14 | Cc1ccc(-c2cccc(NC(=O)c3ccc(Oc4cc5c(cc4Cl)C(C(=O)O)CCO5)cc3)n2)cc1 (stereo not drawn) [Example 57, 6-Chloro-7-(4-(6-p-tolylpyridin-2-ylcarbamoyl)phenoxy)chroman-4-carboxylic acid] | 39.4 nM
15 | COc1ccc(-c2cccc(NC(=O)c3ccc(Oc4cc5c(cc4Cl)C(C(=O)O)CCO5)cc3)n2)cc1 (stereo not drawn) [Example 58, 6-Chloro-7-(4-(6-(4-methoxyphenyl)pyridin-2-ylcarbamoyl)phenoxy)chroman-4-carboxylic acid] | 67 nM
16 | O=C(Nc1cnc(-c2ccc(C(F)(F)F)cc2)cn1)c1ccc(Oc2cc3c(cc2Cl)C(C(=O)O)CCO3)cc1 (stereo not drawn) [Example 61, Sodium 6-chloro-7-(4-(5-(4-(trifluoromethyl)phenyl)pyrazin-2-ylcarbamoyl)phenoxy)chroman-4-carboxylate] | 539 nM

Continued, values first:

Row | EC50 | Structure (SMILES)
17 | 5000 nM | O=C(Nc1ccc(F)c(-c2ccc(Cl)cc2)n1)c1ccc(Oc2cc3c(cc2Cl)C(C(=O)O)CCO3)cc1 (stereo not drawn) [Example 44, Sodium 6-Chloro-7-(4-(6-(4-chlorophenyl)-5-fluoropyridin-2-ylcarbamoyl)phenoxy)chroman-4-carboxylate]
18 | 283 nM | O=C(Nc1ccc(-c2ccc(C(F)(F)F)cc2Cl)nn1)c1ccc(Oc2cc3c(cc2Cl)C(C(=O)O)CCO3)cc1 (stereo not drawn) [Example 59, Sodium 6-chloro-7-(4-(6-(2-chloro-4-(trifluoromethyl)phenyl)pyridazin-3-ylcarbamoyl)phenoxy)chroman-4-carboxylate]
19 | 63 nM | O=C(Nc1ccc(-c2ccc(C(F)(F)F)c(Cl)c2)nn1)c1ccc(Oc2cc3c(cc2Cl)C(C(=O)O)CCO3)cc1 (stereo not drawn) [Example 60, Sodium 6-chloro-7-(4-(6-(3-chloro-4-(trifluoromethyl)phenyl)pyridazin-3-ylcarbamoyl)phenoxy)chroman-4-carboxylate]
20 | 327 nM | Cc1ccc(-c2ccc(NC(=O)c3ccc(Oc4cc5c(cc4Cl)C(C(=O)O)CCO5)cc3)nn2)cc1 (stereo not drawn) [Example 62, Sodium 6-chloro-7-(4-(6-p-tolylpyridazin-3-ylcarbamoyl)phenoxy)chroman-4-carboxylate]
21 | 1460 nM | COc1ccc(-c2ccc(NC(=O)c3ccc(Oc4cc5c(cc4Cl)C(C(=O)O)CCO5)cc3)nn2)cc1 (stereo not drawn) [Example 63, Sodium 6-chloro-7-(4-(6-(4-methoxyphenyl)pyridazin-3-ylcarbamoyl)phenoxy)chroman-4-carboxylate]
22 | 344 nM | CSc1ccc(-c2ccc(NC(=O)c3ccc(Oc4cc5c(cc4Cl)C(C(=O)O)CCO5)cc3)nn2)cc1 (stereo not drawn) [Example 64, Sodium 6-chloro-7-(4-(6-(4-(methylthio)phenyl)pyridazin-3-ylcarbamoyl)phenoxy)chroman-4-carboxylate]
23 | 96.2 nM | O=C(Nc1ccc(-c2ccc(Cl)c(Cl)c2)nn1)c1ccc(Oc2cc3c(cc2Cl)C(C(=O)O)CCO3)cc1 (stereo not drawn) [Example 65, Sodium 6-chloro-7-(4-(6-(3,4-dichlorophenyl)pyridazin-3-ylcarbamoyl)phenoxy)chroman-4-carboxylate]
24 | 306 nM | O=C(Nc1ccc(-c2ccc(F)cc2)nn1)c1ccc(Oc2cc3c(cc2Cl)C(C(=O)O)CCO3)cc1 (stereo not drawn) [Example 66, Sodium 6-chloro-7-(4-(6-(4-fluorophenyl)pyridazin-3-ylcarbamoyl)phenoxy)chroman-4-carboxylate]
25 | 203 nM | O=C(Nc1ccc(-c2ccc(Cl)c(F)c2)nn1)c1ccc(Oc2cc3c(cc2Cl)C(C(=O)O)CCO3)cc1 (stereo not drawn) [Example 67, Sodium 6-chloro-7-(4-(6-(4-chloro-3-fluorophenyl)pyridazin-3-ylcarbamoyl)phenoxy)chroman-4-carboxylate]
26 | 869 nM | COc1ccc(-c2ccc(NC(=O)c3ccc(Oc4cc5c(cc4Cl)C(C(=O)O)CCO5)cc3)nn2)cn1 (stereo not drawn) [Example 68, Sodium 6-chloro-7-(4-(6-(6-methoxypyridin-3-yl)pyridazin-3-ylcarbamoyl)phenoxy)chroman-4-carboxylate]
27 | 1780 nM | COc1ccc(-c2ccc(NC(=O)c3ccc(Oc4cc5c(cc4Cl)C(C(=O)O)CCO5)cc3)nn2)c(OC)n1 (stereo not drawn) [Example 69, Sodium 6-chloro-7-(4-(6-(2,6-dimethoxypyridin-3-yl)pyridazin-3-ylcarbamoyl)phenoxy)chroman-4-carboxylate]
28 | 437 nM | O=C(Nc1ccc(-c2ccc(C(F)(F)F)cc2F)nn1)c1ccc(Oc2cc3c(cc2Cl)C(C(=O)O)CCO3)cc1 (stereo not drawn) [Example 70, Sodium 6-chloro-7-(4-(6-(2-fluoro-4-(trifluoromethyl)phenyl)pyridazin-3-ylcarbamoyl)phenoxy)chroman-4-carboxylate]
29 | 1510 nM | O=C(Nc1ccc(-c2ccc(F)cc2F)nn1)c1ccc(Oc2cc3c(cc2Cl)C(C(=O)O)CCO3)cc1 (stereo not drawn) [Example 71, Sodium 6-chloro-7-(4-(6-(2,4-difluorophenyl)pyridazin-3-ylcarbamoyl)phenoxy)chroman-4-carboxylate]
30 | 1110 nM | O=C(Nc1ccc(-c2ccc(Cl)cc2F)nn1)c1ccc(Oc2cc3c(cc2Cl)C(C(=O)O)CCO3)cc1 (stereo not drawn) [Example 72, Sodium 6-chloro-7-(4-(6-(4-chloro-2-fluorophenyl)pyridazin-3-ylcarbamoyl)phenoxy)chroman-4-carboxylate]

From patent US8785445B2 (Array BioPharma Inc., priority 2008, dated 2014)
